From patent publication US20030036567A1, “PROPYLENE GLYCOL AS AN AGENT TO STIMUATE THROMBOPOIESIS” (priority 2001, published 2003)
Where two headings read alike, the source gives them in different places.

Columns and labels:
[1] = occupational exposure; cited from earlier work
[2] = human, in vivo
Text: Example 1. Patient 1 was a person with a history of congenital aqueductal stenosis diagnosed and treated with a Torkildson shunt. Nineteen months prior to admission, they sustained a minor head injury in a motor vehicle accident resulting in a shunt malfunction with recurrent headaches, necessitating treatment with a ventriculoperitoneal shunt. Consequent subdural hygromas became infected, leaving the patient with marked cognitive and motor impairments. They were transferred to a rehabilitation facility six months prior to admission to our hospital. […] All biochemical and hematologic abnormalities resolved within 36 hours. The patient remained well until four weeks prior to admission when they again developed fever (106), tachycardia (169 bpm), and tachypnea. Similar biochemical and hematological abnormalities were noted including a white blood cell count of 25,000 (per mm^3) and a thrombocyte count of 469,000 (per mm^3). Cultures of blood, urine, and CSF were negative. Within 36 hours the patient returned to baseline. Similar episodes were noted to occur at roughly seven day intervals. CT scans of chest, abdomen and pelvis, and a gallium scan were unremarkable. After the fourth recorded episode, the patient was transferred to our neurological unit for evaluation of an occult ventriculoperitoneal shunt infection or possible hypothalamic dysregulation.
On transfer, the patient was noted to have BP 120/80, HR 88 bpm and T 37.5. The general physical examination was notable only for generalized pallor and contractures of the lower extremities. They were awake but only able to follow single midline one-step commands. […] The patient was treated with kayexalate. The anion gap acidosis resolved within twelve hours. At that time, the patient was noted to develop oliguric renal insufficiency with a BUN of 41 (mg/dl) and creatinine of 2.2 (mg/dl). […] An unusual "green stool" which caked the patient's rectum was collected. Samples of the patient's blood, urine, and stool (collected 17 hours after the recorded onset of symptoms) were sent for toxicologic analysis. […]
In addition, prominent throughout the aspirate were eosinophils, mast cells as well as eo-basophils. Megakaryocytes were abundant.

[3] = single oral dose; cited from earlier work
[4] = diet containing 6 or 12% propylene glycol; cited from earlier work
[5] = accidental intoxication, cited from earlier work
[6] = tested on: CD34+CD38- hematopoietic stem cells; experiment: Colony formation from CD34+CD38- hematopoietic stem cells in semi-solid culture; format: cell-based, human; details: 500 cells per ml, 14 days, Figure 1
Procedure: Example 3. CD34+CD38- cells isolated from human bone marrow (Poietic Technologies) were counted using a hemocytometer and plated in semi-solid culture media (MethoCult GF+H4435, StemCell Technologies, Vancouver, British Columbia) containing methylcellulose, fetal bovine serum, BSA, recombinant human (rh) SCF, rh GM-CSF, rh G-CSF, rh IL-3, rh IL-6, rh erythropoietin, and L-glutamine to which were added varying concentrations of propylene glycol (FW=76.1 Density=1.04g/ml Fisher Scientific). The cells were plated at a density of 500 cells per 1 ml per 35 mm petri dish. After incubation at 37 °C, 5% CO2 for 14 days, the dishes were scored for colony formation.

[7] = tested on: human proximal tubule (HPT) cells; details: normally proliferating cultured HPT cells; cited from earlier work
Murine bone marrow cells = experiment: Long term culture initiating cell assay (LTCIC); format: cell-based, C57bl mice; details: 500 ng/ml, Figure 2
Procedure: Example 4. Murine bone marrow was obtained from the femurs of adult C57bl mice, suspended in Myelocult (Stem Cell Technologies, Vancouver Canada), and cells were isolated by centrifugation at 500g for 10 minutes at 4 °C. Viability was determined by Trypan blue exclusion and aliquots were taken for plating efficiency in methylcellulose culture (MethoCult, Stem Cell Technologies). The remaining cell suspension was plated at a density of 6.25 x10^4/well into 24 well plates containing irradiated FBMD-1 feeder layers. To appropriate wells, propylene glycol was added to final concentration of 500 ng/ml. At weekly interval the cells were demidepopulated and fed with 250μl fresh medium. The harvested cells were washed with PBS and added to a 2.5 ml tube of MethoCult. Two 35mm petri dishes containing 1 ml each were plated from each tube. After 10 days incubation at 37 °C, 5% CO2, the dishes were scored for colonies.

[8] = Case report Patient 2, ingestion of antifreeze containing 30% propylene glycol; format: in vivo, human
Procedure: Example 2. A person ingested an unknown amount of the antifreeze Freeze Proof containing 30% propylene glycol earlier. Following ingestion, the child acted normally and ate well until approximately 6 hours later when they developed slurred speech, right facial drooping, an abnormal, wobbling gait, and was noted walking into walls and unable sit up by […]. They were the brought to the emergency room approximately 12 hours after ingestion with the above symptoms. At that time a toxicological screen was obtained which was qualitatively positive for propylene glycol. They were then transferred to University Medical Center where their blood pressure was 106/70, pulse was 113, respiration was 18, temperature was 36.3 C. At that time they had slurred speech, good facial symmetry, intact cranial nerve examination, but an unsteady gait, and was drowsy and lethargic but arousable. Their pupils were equal and reactive to light. […] The child was given a charcoal and sorbitol lavage through an oral naso-gastric tube as well as IV fluid therapy with normal saline. Within 4 hours of admission, the child was able to walk and talk well without evidence of slurred speech. The following morning the child was discharged from the hospital with no evidence of the symptoms originally observed.

BUN [2] [mg/dL] | LDH [2] [U/liter] | SGOT [2] [U/liter] | anion gap [2] | bicarbonate [2] [mmol/L] | creatinine [2] [mg/dL] | creatinine kinase [2] [U/liter] | hematologic response to acute exposure [2] | potassium [2] [mmol/L] | SMILES | bone marrow findings [1] | bone marrow studies [2] | spleen weight [3] | erythrocyte effects [4] | WBC ([5]; chart review) | anion gap [5] | effect on CFU formed from CD34+ cells [6] | concentration with toxic effects [7] [µM] | increase of total cell number on the cultures over cells not exposed (Murine bone marrow cells) [%] | biochemical or hematological outcome [8]
 |  |  |  |  |  |  |  |  | COC(C)COC(C)CO (stereo not shown) [dipropylene glycol monomethyl ether] | generally hypocellular marrow with decreased myeloid to erythroid ratios and an abundance of stored iron |  |  |  |  |  |  |  |  | 
41 | 528 | 151 | 24 | 16 | 2.2 | 8400 | dramatic leukocytosis and thrombocytosis | 5.8 | CC(O)CO (stereo not shown) [propylene glycol, 1,2-propanediol] |  | relatively hypercellular marrow with increased myeloid precursors and megakaryocytes | significant increase in spleen weight | accelerated erythropoiesis and reduction in red blood cell life span | 25,000 per mm^3 | 28 | increased CFU formed from CD34+ cells | 50000 | 50 | no biochemical or hematological abnormalities
